Results as given in ChEMBL document CHEMBL6103558, “The potential of MAO inhibitors as chemotherapeutics in cancer: A literature survey” (Eur J Med Chem, 2025).

How the values were obtained:
HCT-116 [1] = assay: Anticancer activity against human HCT-116 cells assessed as reduction in cell growth by MTT assay; type: functional, cell-based
HCT-116 [2] = assay: Anti-migratory activity against human HCT116 cells assessed as reduction in cell migration at 0.05 uM incubated for 24 hrs by wound healing assay relative to control; type: functional; parameters: scale not given: the % may be the effect or the level left
MCF7 = assay: Antiproliferative activity against human MCF7 cells by MTT assay; type: functional, cell-based
HCT-116 [3] = assay: Antiproliferative activity against human HCT-116 cells by MTT assay; type: functional, cell-based
SK-OV-3 = assay: Antiproliferative activity against human SK-OV-3 cells by MTT assay; type: functional, cell-based
[4] = target: T1, Amine oxidase [flavin-containing] B (Homo sapiens, UniProt P27338); assay: Binding affinity to MAO-B (unknown origin) measured by MAO-GloTM method
T1 sequence (P27338 whole entry): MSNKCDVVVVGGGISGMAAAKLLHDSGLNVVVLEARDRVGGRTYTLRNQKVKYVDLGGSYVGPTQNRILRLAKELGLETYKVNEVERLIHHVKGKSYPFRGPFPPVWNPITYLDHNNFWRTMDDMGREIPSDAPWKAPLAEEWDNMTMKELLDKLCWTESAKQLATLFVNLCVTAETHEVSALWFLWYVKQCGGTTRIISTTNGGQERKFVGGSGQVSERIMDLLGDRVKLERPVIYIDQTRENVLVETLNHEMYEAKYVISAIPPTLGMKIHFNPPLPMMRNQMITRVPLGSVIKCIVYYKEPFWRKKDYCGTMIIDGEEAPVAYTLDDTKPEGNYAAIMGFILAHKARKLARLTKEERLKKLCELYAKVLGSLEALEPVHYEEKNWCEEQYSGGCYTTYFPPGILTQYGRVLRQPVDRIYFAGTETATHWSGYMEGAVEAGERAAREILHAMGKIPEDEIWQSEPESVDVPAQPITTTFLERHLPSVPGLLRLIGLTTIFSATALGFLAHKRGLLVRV

LN-229 = assay: Growth inhibition of human LN-229 cells incubated for 48 hrs by trypan blue exclusion assay; type: functional
[5] = target: T1, Amine oxidase [flavin-containing] B; assay: Inhibition of human MAO-B
LNCaP = assay: Antiproliferative activity against human LNCap cells assessed as reduction in cell viability incubated for 72 hrs by resazurin dye based assay; type: functional
[6] = target: T2, Amine oxidase [flavin-containing] A (Homo sapiens, UniProt P21397); assay: Binding affinity to human recombinant MAO-A assessed as inhibition constant by MAO-GloTM method
T2 sequence (P21397 whole entry): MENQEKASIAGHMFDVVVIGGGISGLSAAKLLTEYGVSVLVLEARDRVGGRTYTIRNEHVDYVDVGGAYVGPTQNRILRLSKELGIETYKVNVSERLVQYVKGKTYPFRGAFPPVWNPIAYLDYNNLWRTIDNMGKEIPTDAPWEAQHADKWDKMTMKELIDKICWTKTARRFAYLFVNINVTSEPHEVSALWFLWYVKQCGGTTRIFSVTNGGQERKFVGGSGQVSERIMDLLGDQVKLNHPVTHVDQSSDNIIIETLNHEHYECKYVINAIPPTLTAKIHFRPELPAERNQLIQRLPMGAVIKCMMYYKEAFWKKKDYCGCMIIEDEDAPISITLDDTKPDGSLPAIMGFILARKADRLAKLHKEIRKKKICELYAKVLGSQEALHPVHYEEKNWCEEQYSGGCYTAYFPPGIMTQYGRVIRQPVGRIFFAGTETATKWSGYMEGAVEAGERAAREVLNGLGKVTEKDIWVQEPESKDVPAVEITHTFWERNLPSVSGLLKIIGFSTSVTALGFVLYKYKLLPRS

A549 = assay: Antiproliferative activity against human A549 cells; type: functional, cell-based
T47D = assay: Antiproliferative activity against human T47D cells; type: functional, cell-based
[7] = target: T2, Amine oxidase [flavin-containing] A; assay: Inhibition of MAO-A (unknown origin)
HBL-100 = assay: Antiproliferative activity against human HBL-100 cells; type: functional, cell-based
WiDr = assay: Antiproliferative activity against human WiDr cells; type: functional, cell-based
SW1573 = assay: Antiproliferative activity against human SW1573 cells; type: functional, cell-based

`O=C(Cn1cc(Cn2c(=O)c(Cc3ccccc3)nc3ccccc32)nn1)N/N=C/c1cccnc1` showed an IC50 (HCT-116 [1]) of 18 µM and an Activity (HCT-116 [2]) of 75%.
With `CN1CCC2=C(C1)C(c1c[nH]c3ccc(Br)cc13)c1cc(Cl)ccc1O2` (centres undefined) the IC50 (MCF7) was 4.83 µM, the IC50 (HCT-116 [3]) was 4.83 µM and the IC50 (SK-OV-3) was 4.83 µM.
In the case of `C=C(CCCCCCNc1ccccc1OC)Nc1ccc(CCc2ccc(NC(=C)CCCCCCNc3ccccc3OC)cc2)cc1`, the Ki [4] is reported as under 1 µM.
Molecule `COc1ccccc1NCCCCCCC(=O)Nc1ccc(CCc2ccc(NC(=O)CCCCCCNc3ccccc3OC)cc2)cc1` has a GI50 (LN-229) of under 1 µM.
`O=C(Cn1cc(Cn2c(=O)c(Cc3ccccc3)nc3ccccc32)nn1)NNC(=S)Nc1ccccc1` gave an IC50 (HCT-116 [1]) of 7.85 µM and an Activity (HCT-116 [2]) of 75%.
`C/C(=N\Nc1nc(-c2cccc([N+](=O)[O-])c2)cs1)c1ccsc1` was tested, and the IC50 [5] was 0.0025 µM.
In the case of `O=c1cc(-c2ccccc2)oc2c(Cl)cc(Cl)cc12`, the IC50 (LNCaP) is reported as about 10 µM and the Ki [6] is reported as 0.0074 µM.
`O=[N+]([O-])c1ccc(/C=N/Nc2nc(-c3ccccc3)c[se]2)cc1` gave an IC50 (A549) of 24 µM, an IC50 (T47D) of 24 µM and an IC50 [7] of 7.2 µM. For the same molecule, the IC50 (HBL-100) was 24 µM, the IC50 (WiDr) was 24 µM and the IC50 (SW1573) was 24 µM.
`C/C(=N\Nc1nc(-c2cccc([N+](=O)[O-])c2)cs1)c1cccs1` was tested, and the IC50 [5] was 0.0068 µM.
